{
  "source": "patent US8790654B2",
  "about": "“Glycosylceramide adjuvant for saccharide antigens” (Novartis AG, priority 2004, dated 2014)",
  "test_system": "CRM protein carrier",
  "test": "CRM-specific Ig titre in mice immunised with MenC-CRM conjugate with or without α-GalCer",
  "assay_type": "in vivo",
  "conditions": "MenC-CRM conjugate and α-GalCer, compared with conjugate alone; 2wp2 and 2wp3",
  "protocol": "C) Immunisation schedule for mice with different polysaccharides, plain, conjugated or admixed with protein carriers, with and without α-GalCer. Ten groups of wild-type C57BL/6 mice were primed on day 0 with: 1) PBS, 2) 0.1 μg with α-GalCer, 3) 10 μg MenC polysaccharide, 4) 20 μg CRM protein carrier, 5) 30 μg of a MenC-CRM conjugate, 6) 10 μg MenC polysaccharide admixed with CRM protein carrier, or the compositions in 3)-6) and α-GalCer (groups 7-10). Mice were boosted two and four weeks after they were primed with the same composition with which they were primed. Mice were bled 2, 4 and 6 weeks after initial priming (2wp1, 2wp2 and 2wp3) and the levels of antibodies against both the MenC polysaccharide and the CRM carrier were measured.\nFIG. 5: α-GalCer enhances the specific antibody response against both the MenC polysaccharide and the CRM protein carrier in a MenC-CRM conjugate. Wild-type mice were primed with 10 μg MenC polysaccharide, 20 μg CRM protein carrier, 10 μg MenC polysaccharide admixed with CRM protein carrier (MenC+CRM), or 30 μg of a MenC-CRM conjugate, or the same compositions with α-GalCer. Mice were boosted two and four weeks after they were primed with the same composition with which they were primed.",
  "data": [
    {"smiles": "CCCCCCCCCCCCCCCCCCCCCCCCCC(=O)N[C@@H](CO[C@H]1O[C@H](CO)[C@H](O)[C@H](O)[C@H]1O)[C@H](O)[C@H](O)CCCCCCCCCCCCCC", "note": "[α-GalCer, α-galactosylceramide]", "values": [
      {"measurement": "CRM-specific Ig titre", "value": "enhanced"}
    ]}
  ]
}
